This is an account of results in patent publication US8012963B2, “3,4-dihydro-2H-benzo[1,4]oxazine and thiazine derivatives as CETP inhibitors” (Janssen Pharmaceutica N.V., priority 2006, dated 2011).

This assay addresses T1, CETP (Homo sapiens, UniProt P11597).
T1 construct: from tissue; host or cells: human plasma from normal volunteers
T1 sequence (P11597 18-493): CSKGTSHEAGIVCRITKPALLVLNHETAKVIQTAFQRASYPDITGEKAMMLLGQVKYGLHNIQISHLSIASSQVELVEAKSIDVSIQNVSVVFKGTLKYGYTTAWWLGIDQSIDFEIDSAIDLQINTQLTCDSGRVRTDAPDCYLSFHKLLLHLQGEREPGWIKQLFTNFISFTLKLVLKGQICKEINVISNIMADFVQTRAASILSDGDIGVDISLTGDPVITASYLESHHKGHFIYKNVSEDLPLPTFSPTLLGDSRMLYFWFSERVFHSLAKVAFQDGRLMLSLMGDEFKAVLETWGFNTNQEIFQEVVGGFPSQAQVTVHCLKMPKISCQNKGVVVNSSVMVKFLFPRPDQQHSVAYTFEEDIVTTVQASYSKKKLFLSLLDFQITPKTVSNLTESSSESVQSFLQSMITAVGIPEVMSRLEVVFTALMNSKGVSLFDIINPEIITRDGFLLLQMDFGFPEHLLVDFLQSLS
Put plainly: CETP in vitro assay ([3H]CE-HDL transfer, Amersham kit TRKQ7005; modified protocol in human plasma). In kind it is biochemical. Particulars: multiple values = multiple measurements; for inhibition at 1 µM / % Inhibition @ 1 μM: 1 μM compound. The procedure: The CETP inhibitory activity of the compounds was determined using a commercially available kit from Amersham Biosciences (Catalog #TRKQ7005).
For the measurement of inhibitory activity in human plasma, a modified protocol (Connolly, D. T. et al., Biochemistry, 39 13870-13879, 2000) was used. Briefly, 80 μl of human plasma (obtained from normal volunteers), approximately 25 μg/ml (200) of [^3H]CE-HDL (Amersham Biosciences from kit TRKQ7005) and 1 μl of compound dissolved in DMSO was incubated for at least 4 hrs at 37° C. and non-specific transfer was determined by incubating a corresponding plate at 4° C. (blank). After the incubation period, 100 of a solution of 1% Dextralip 50/0.5M MgCl2, pH 7.4 was added, vortexed and incubated at room temperature for 10 min. The plate was then centrifuged for 30 min at 10° C. at 3000 rpm in a Sorvall RT6000B centrifuge. Fifty microliters of the supernatant was transferred to a Picoplate (Packard) containing 100 μl of Microscint 40 (Perkin Elmer) and mixed for 30 min using a plate mixer. The radioactivity was counted using a TopCount (Perkin Elmer) and the % control was determined in the samples using the following formula: % transfer relative to vehicle controls (% control)=[cpm blank-cpm test]/cpm blank/cpm control]×100. IC50s were calculated from plots of the % control versus compound concentration.
A variety of example compounds have been made and tested, with a range of in vitro results. Below, in Table 2, are representative compounds and the corresponding data; in some cases, where multiple IC50's are shown, multiple measurements were taken. Naturally, different compounds in Formula (I), (Ia), (Ib) and (Ic) may have not activities identical to any one compound below.

Values joined by “and” are separate entries in the source; they are usually repeats but may differ in a detail not shown here. Identical values can stand only once.

In general, inhibition refers to how much of the control response was suppressed. Low values mean a weak effect, high ones a strong effect. `CC1(C)OC[C@H](CN2c3cccc(-c4cccc(OC(F)(F)F)c4)c3OC[C@H]2c2cccc(OC(F)(F)C(F)F)c2)O1` [Compound 46, 2H-1,4-Benzoxazine, 4-[[(4S)-2,2-dimethyl-1,3-dioxolan-4-yl]methyl]-3,4-dihydro-3-[3-(1,1,2,2-tetrafluoroethoxy)phenyl]-8-[3-(trifluoromethoxy)phenyl]-, (3R)—] displayed an inhibition at 1 µM of 20%. For the compound `OC(CN1c2cccc(-c3cccc(OC(F)(F)F)c3)c2OCC1c1ccccc1)C(F)(F)F` (centres unmarked) [Compound 96, 1,1,1-Trifluoro-3-[3-phenyl-8-(3-trifluoromethoxy-phenyl)-2,3-dihydro-benzo[1,4]oxazin-4-yl]-propan-2-ol], the “% Inhibition @ 1 μM” value is 1%. Same read-out and setting: with `OC(CN1c2cccc(-c3cccc(OC(F)(F)F)c3)c2OCC1c1cccc(Cl)c1)C(F)(F)F` (centres unmarked) [Compound 102, 3-[3-(3-Chloro-phenyl)-8-(3-trifluoromethoxy-phenyl)-2,3-dihydro-benzo[1,4]oxazin-4-yl]-1,1,1-trifluoro-propan-2-ol] the figure was 0%. As a reminder, the IC50 is the concentration at which inhibition is half-maximal. For `CCCN1c2cccc(-c3cccc(OC(F)(F)F)c3)c2OCC1c1cccc(OC(F)(F)C(F)F)c1` (centres unmarked) [Compound 34, 4-Propyl-3-[3-(1,1,2,2-tetrafluoro-ethoxy)-phenyl]-8-(3-trifluoromethoxy-phenyl)-3,4-dihydro-2H-benzo[1,4]oxazine], the inhibition at 1 µM stood at 38%, the “% Inhibition @ 1 μM” value stood at 39% and the half-inhibitory concentration (IC50) worked out at 190 nM.

For the compound `OC(CN1c2cccc(-c3cccc(F)c3)c2OCC1c1cccc(OC(F)(F)C(F)F)c1)C(F)(F)F` (single isomer, unassigned) [Compound 66, 1,1,1-Trifluoro-3-{8-(3-fluoro-phenyl)-3-[3-(1,1,2,2-tetrafluoro-ethoxy)-phenyl]-2,3-dihydro-benzo[1,4]oxazin-4-yl}-propan-2-ol], the “% Inhibition @ 1 μM” value is 104% and 79% and 107%.

`C[C@@H](O)CN1c2cccc(-c3cccc(OC(F)(F)F)c3)c2OC[C@@H]1c1cccc(OC(F)(F)C(F)F)c1` [Compound 35, 4H-1,4-Benzoxazine-4-ethanol, 2,3-dihydro-α-methyl-3-[3-(1,1,2,2-tetrafluoroethoxy)phenyl]-8-[3-(trifluoromethoxy)phenyl]-, (3S,αR)—]: 1 µM produced 47% inhibition; the “% Inhibition @ 1 μM” value amounted to 52%; the 50% inhibitory concentration (IC50) is 26 nM and 117 nM and 121 nM. In the case of `OC(CN1c2cccc(-c3cc(F)cc(F)c3)c2OCC1c1cccc(OC(F)(F)C(F)F)c1)C(F)(F)F` (single isomer, unassigned) [Compound 65, 3-{8-(3,5-Difluoro-phenyl)-3-[3-(1,1,2,2-tetrafluoro-ethoxy)-phenyl]-2,3-dihydro-benzo[1,4]oxazin-4-yl}-1,1,1-trifluoro-propan-2-ol], the “% Inhibition @ 1 μM” value was 86% and 76%; it took 990 nM to reach half-maximal inhibition (IC50). As for `COc1cccc(C2COc3c(-c4cccc(OC(F)(F)F)c4)cccc3N2CC(O)C(F)(F)F)c1` (centres unmarked) [Compound 99, 1,1,1-Trifluoro-3-[3-(3-methoxy-phenyl)-8-(3-trifluoromethoxy-phenyl)-2,3-dihydro-benzo[1,4]oxazin-4-yl]-propan-2-ol], the “% Inhibition @ 1 μM” value stood at 29%. Consider `OC(CF)CN1c2cccc(-c3cccc(OC(F)(F)F)c3)c2OC[C@@H]1c1cccc(OC(F)(F)C(F)F)c1` (stereo in doubt) [Compound 75, 4H-1,4-Benzoxazine-4-ethanol, 2,3-dihydro-α-fluoromethyl-3-[3-(1,1,2,2-tetrafluoroethoxy)phenyl]-8-[3-(trifluoromethoxy)phenyl]-, (3S,αS)—], for which the inhibition at 1 µM came to 55% and the IC50 turned out to be 147 nM. Regarding `OCCCC1COc2c(-c3cccc(OC(F)(F)F)c3)cccc2N1CC(O)C(F)(F)F` (centres unmarked) [Compound 54, 3-[4-(3,3,3-Trifluoro-2-hydroxy-propyl)-8-(3-trifluoromethoxy-phenyl)-3,4-dihydro-2H-benzo[1,4]oxazin-3-yl]-propan-1-ol], the “% Inhibition @ 1 μM” value was 1%. As to `OC(CN1c2cccc(-c3cccc(OC(F)(F)F)c3)c2OCC1c1ccoc1)C(F)(F)F` (centres unmarked) [Compound 106, 1,1,1-Trifluoro-3-[3-furan-3-yl-8-(3-trifluoromethoxy-phenyl)-2,3-dihydro-benzo[1,4]oxazin-4-yl]-propan-2-ol], the “% Inhibition @ 1 μM” value is on record as 0%.

For `O[C@@H](CN1c2cccc(-c3cccc(OC(F)(F)F)c3)c2OC[C@@H]1c1cccc(OC(F)(F)F)c1)C(F)(F)F` [Compound 9, 4H-1,4-Benzoxazine-4-ethanol, 2,3-dihydro-3,8-bis[3-(trifluoromethoxy)phenyl]-α-(trifluoromethyl)-, (3S,αS)—], the inhibition at 1 µM was determined as 68%; the “% Inhibition @ 1 μM” value is 72% and 67%; the IC50 is 71 nM and 195 nM. Take `CC(C)(C)C(=O)CC1COc2c(-c3cccc(OC(F)(F)F)c3)cccc2N1CC(O)C(F)(F)F` (centres unmarked) [Compound 56, 3,3-Dimethyl-1-[4-(3,3,3-trifluoro-2-hydroxy-propyl)-8-(3-trifluoromethoxy-phenyl)-3,4-dihydro-2H-benzo[1,4]oxazin-3-yl]-butan-2-one]: the “% Inhibition @ 1 μM” value was 9%.

The compound `CN1CCN(CCN2c3cccc(-c4cccc(OC(F)(F)F)c4)c3OCC2c2cccc(OC(F)(F)C(F)F)c2)CC1` (centres unmarked) [Compound 31, 4-[2-(4-Methyl-piperazin-1-yl)-ethyl]-3-[3-(1,1,2,2-tetrafluoro-ethoxy)-phenyl]-8-(3-trifluoromethoxy-phenyl)-3,4-dihydro-2H-benzo[1,4]oxazine] registered an inhibition at 1 µM of 17%. As for `CCc1ccsc1C1COc2c(-c3cccc(OC(F)(F)F)c3)cccc2N1CC(O)C(F)(F)F` (centres unmarked) [Compound 87, 3-[3-(3-Ethyl-thiophen-2-yl)-8-(3-trifluoromethoxy-phenyl)-2,3-dihydro-benzo[1,4]oxazin-4-yl]-1,1,1-trifluoro-propan-2-ol], the inhibition at 1 µM amounted to 8%. Take `O[C@@H](CN1c2cccc(-c3cccc(OC(F)(F)F)c3)c2SC[C@H]1c1cccc(OC(F)(F)C(F)F)c1)C(F)(F)F` [Compound 108]: the inhibition at 1 µM turned out to be 34%, the “% Inhibition @ 1 μM” value came to 39% and the IC50 was > 2920 nM. With `OC(CN1c2cccc(-c3cccc(OC(F)(F)F)c3)c2OCC1c1cccc(OC(F)(F)C(F)F)c1)C(F)(F)F` (single isomer, unassigned) [Compound 2, 1,1,1-Trifluoro-3-[3-[3-(1,1,2,2-tetrafluoro-ethoxy)-phenyl]-8-(3-trifluoromethoxy-phenyl)-2,3-dihydro-benzo[1,4]oxazin-4-yl]-propan-2-ol], the “% Inhibition @ 1 μM” value came to 73%; the IC50 is 276 nM and 131 nM. For `OC(CN1c2cccc(-c3cccc(OC(F)(F)F)c3)c2OCC1c1ccccc1OC(F)(F)C(F)F)C(F)(F)F` (centres unmarked) [Compound 92, 1,1,1-Trifluoro-3-[3-[2-(1,1,2,2-tetrafluoro-ethoxy)-phenyl]-8-(3-trifluoromethoxy-phenyl)-2,3-dihydro-benzo[1,4]oxazin-4-yl]-propan-2-ol], the “% Inhibition @ 1 μM” value is given as 1%. As to `OC(CN1c2cccc(-c3cc(F)cc(F)c3)c2OCC1c1cccc(OC(F)(F)C(F)F)c1)C(F)(F)F` (single isomer, unassigned) [Compound 64, 3-{8-(3,5-Difluoro-phenyl)-3-[3-(1,1,2,2-tetrafluoro-ethoxy)-phenyl]-2,3-dihydro-benzo[1,4]oxazin-4-yl}-1,1,1-trifluoro-propan-2-ol], the “% Inhibition @ 1 μM” value is 121% and 101% and 119%; the concentration for half-maximal inhibition (IC50) is 100 nM and 117 nM. The compound `CC(=O)CN1c2cccc(-c3cccc(OC(F)(F)F)c3)c2OC[C@@H]1c1cccc(OC(F)(F)C(F)F)c1` [Compound 38, 2-Propanone, 1-[(3S)-2,3-dihydro-3-[3-(1,1,2,2-tetrafluoroethoxy)phenyl]-8-[3-(trifluoromethoxy)phenyl]-4H-1,4-benzoxazin-4-yl]-] yielded an inhibition at 1 µM of 5%. On to `O[C@@H](CN1c2cccc(-c3cc(C(F)(F)F)cc(C(F)(F)F)c3)c2OC[C@@H]1c1cccc(OC(F)(F)C(F)F)c1)C(F)(F)F` [Compound 78, 4H-1,4-Benzoxazine-4-ethanol, 2,3-dihydro-3-[3-(1,1,2,2-tetrafluoroethoxy)phenyl]-8-[3,5-bis(trifluoromethyl)phenyl]-α-(trifluoromethyl)-, (3S,αS)—], for which 1 µM produced 55% inhibition, the “% Inhibition @ 1 μM” value is reported as 62% and it took 580 nM to reach half-maximal inhibition (IC50).
